From article PMC7698783, “Performance of Population Pharmacokinetic Models in Predicting Polymyxin B Exposures” (Microorganisms, 2020)
Where “and” joins values, the source holds several entries; their conditions need not be identical. Equal entries are not always repeated. Positions of bridges follow the written chain, without caps; N, C: chain ends. Non-standard residues stand in square brackets, D forms with d. Residues, ends and D or L forms follow the SMILES beside them. *: point of attachment. X1 = CC[C@H](C)CCCCC(=O)*; Dab = NCC[C@H](N)C(=O)O

Tests used:
[1] = Steady-state plasma pharmacokinetics of intravenous polymyxin B in adult patients (LC-MS/MS, ADAPT 5 compartment fitting); format: in vivo; conditions: human, one-compartment model, 13 adult patients, i.v. every 12 h, median, read-out: best-fit elimination half-life (median) (converted)
Method: This was a prospective observational study. The study was conducted from March 2016 to March 2018 at two major teaching hospitals in Singapore: Tan Tock Seng Hospital (TTSH) and Singapore General Hospital (SGH). Adult patients (21 years of age or greater) who received intravenous polymyxin B (USP) for the treatment of suspected or confirmed bacterial infections were enrolled. The dose, dosing interval, and infusion duration of polymyxin B administration were as prescribed by the respective attending medical teams. Patients who were pregnant, on dialysis, with burns or spinal cord injury were excluded.
For each subject, four blood samples were obtained serially over one dosing interval at steady state (presumably after the third day of therapy). Since the dosing regimens were not standardized, a sampling scheme spanning the samples over the dosing interval was adopted to accommodate different scenarios. Sample 1 was obtained within 0.5 h prior to the next scheduled dose, sample 2 was obtained 0.5–1 h after the end of drug administration, sample 3 was obtained 3–8 h after the end of drug administration, and sample 4 was obtained within 4 h prior to the next scheduled dose. All samples were specifically timed in relation to drug administration. […] Polymyxin B concentrations in plasma samples were determined using a validated liquid chromatography tandem mass spectrometry method. […]

[2] = 3 population PK studies, no demographic variables linked to total clearance; cited from earlier work
Source text: In contrast, body weight was linked to total clearance in a study using a two-compartment model. Finally, creatinine clearance had been linked to total clearance of polymyxin B in cystic fibrosis patients. || There were several limitations in our study. Only a limited number of (primarily male) patients were enrolled with standard clinical dosing and dosing frequency. The robustness of our conclusion would be enhanced with a larger sample size and a wider range of dosing regimens. Also, the observed AUC values for comparison were based only 4 data points over a single dosing interval.

## CC[C@H](C)CCCCC(=O)N[C@@H](CCN)C(=O)N[C@H](C(=O)N[C@@H](CCN)C(=O)N[C@H]1CCNC(=O)[C@H]([C@@H](C)O)NC(=O)[C@H](CCN)NC(=O)[C@H](CCN)NC(=O)[C@H](CC(C)C)NC(=O)[C@@H](Cc2ccccc2)NC(=O)[C@H](CCN)NC1=O)[C@@H](C)O [polymyxin B] (X1-[Dab]T[Dab][Dab][Dab][dF]L[Dab][Dab]T; lactam 4-C)
[1]
  half-life: 6.8 h
[2]
  estimates of clearance (total clearance) in population pharmacokinetic studies: 2.4 L/h and 2.5 L/h and 2.6 L/h
